Converted amounts (≈) assume the structure as drawn. “Also recorded” adds a separate entry of the source. Where two headings read alike, the source gives them in different places.
Key:
[1] = test system: E. coli JE1011, JST975; test: Paper disk growth inhibitory zone; type: cell-based; details: paper disk φ 8 mm, 200 μg of A22, 24 h, 37° C.
Method: Isolation of A22-resistant mutant Our strategy for identifying the molecular target(s) of A22 involved isolating resistant mutants which grow in the presence of concentrations of A22 that inhibit growth of the parent strain. After 24 h incubation at 37° C., E. coli strains such as JE1011 formed a turbid growth inhibitory zone (φ 12 mm) around a paper disk (φ 8 mm) containing 200 μg of A22. To identify a more suitable parent strain for our selection, we screened for a more drug-sensitive strain that would form clear growth inhibitory zones under similar incubation conditions.
Bacterial strains used E. coli K-12 strains JE1011 (F^− leuB thr trp his thy ara lac xyl mtl rpsL tonA), JST975 (the same as JE1011 but ponB) (Tamaki et al. 1977), W3110 (wild-type), MG1655 (wild-type), DV14 (F^− metB1 panD2 panF1 zhc-12::Tn10) (Vallari & Rock 1985), CAG12149 (F^− zbd-601::Tn10) (Singer et al. 1989), AT1325-678 (F^− lip-9 thi-1 his-4 purB15 proA2 mtl-1 Δmre678) (Wachi et al. 1987) and JM109 [recA1 endA1 gyrA96 thi-1 hsdR17 Δ(lac-proAB) supE44 relA1 F′ (traD36 proAB^+ lacI^q lacZΔM15)] (Yanisch-Perron et al. 1985) were used in this study. Cells were grown in Lennox (L) medium (1% Bactopeptone, 0.5% yeast extracts, 0.5% NaCl, 0.1% glucose, pH 7.2, supplemented with 20 μg/ml thymine). For the growth of AT1325-678, 0.1 μg/ml lipoic acid was supplemented. […]

[2] = test system: B. subtilis 168; test: Determination of minimum inhibitory concentration (MIC); type: cell-based, Bacillus subtilis; details: read-out: MIC B. subtilis
How it was run: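 Two-fold serial agar dilution on L agar and also on Mueller Hinton agar (pH 7.3); 10 µl of stationary-phase culture diluted in 0.85% NaCl to 10^6 cells/ml spotted per plate. MIC taken as lowest concentration inhibiting growth.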

[3] = test system: Caulobacter chromosomal loci (origin, origin-distal loci); test: Chromosome segregation of FROS-labeled loci; type: cell-based, Caulobacter crescentus
Source text: A22 Treatment Blocks Chromosome Segregation. Having established that A22 targets MreB and rapidly disrupts its localization, we used A22 to assess the acute role of MreB in chromosome segregation. To this end we took advantage of strains previously generated in our group that use the fluorescent repressor-operator system (FROS) to simultaneously label two specific chromosomal loci in the same living cell. This system uses fusions of two DNA binding proteins, the lac repressor (LacI) and the Tet repressor (tetR), to CFP and YFP, respectively. Two arrays, each containing multiple tandem repeats of either the LacI or TetR binding sites, are integrated into different chromosomal loci. Each fusion protein clusters at its respective array, causing the cellular address of that array to fluoresce in a detectable fashion.
Synchronized swarmer cells with lac arrays at the origin locus and tet arrays at the midcell-positioned CC2943 locus (FIG. 5A) were incubated with 10 μg/ml A22. After varying periods of time in the presence of A22, the cellular positions of the origin and CC2943 were examined by fluorescence microscopy. The cultures continued to increase in cell mass, as measured by an increase in optical density, but cell division was blocked. […] This effect was reversible, since upon washing out the A22 drug, the origins were rapidly and normally segregated.
Treatment of swarmer cells with A22 before the origins have segregated blocks the movement of chromosomal loci. […]
Though origin-distal loci can separate in the presence of A22, MreB could still partially contribute to their cellular positioning and rate of movement across the cell. Technical considerations prevent the quantitative analysis of locus movement in doubly labeled cells. Thus, to quantitatively assess the role of MreB in origin-distal locus segregation, we examined two singly labeled strains, one with CC0786 marked at 860 kb to the right of the origin, and one with CC3192 marked at 576 kb to the left of the origin. […] The timelapses were analyzed using automated software that provides the absolute position of each locus in each cell. […]
Microscopy and Timelapse Imaging. […] The rates of origin-distal locus segregation were determined by inducing PxyI:lacI:cfp expression with 0.03% xylose for 75 min, isolating swarmer cells, and growing the swarmer cells in M2G liquid medium for 50 min. After 50 min, 10 μg/ml of A22 was added to these liquid cultures, they were mounted onto 1% M2G agarose pads containing 10 μg/ml A22, and a phase and CFP fluorescence image was captured every 2 min for 60 min. The images were analyzed by previously described software to determine the average position and rate of movement of the observed foci.

Q: What does the source list for N=C(N)SCc1ccc(Cl)c(Cl)c1 [Compound 1, S-(3,4-dichlorobenzyl)isothiourea]?
A: Growth inhibitory zone (turbid) ([1]; JE1011): 12 mm; Growth inhibitory zone (clear) ([1]; JST975 (ponB)): 32 mm; MIC ([2]; Bacillus subtilis, 168, Example 2, methods as in Example 1): 100 µg/mL (≈ 425 µM); MIC ([2]; Bacillus subtilis, 168, Table 1, B. subtilis 168): 100 µg/mL (≈ 425 µM); Origin segregation in cells with T158A A22-resistant mreB allele ([3]; 10 μg/ml): successfully segregated; Locus position and rate of segregation of CC0786 and CC3192 ([3]; 10 μg/ml added after 50 min, timelapse 60 min): unaffected; Foci of origin and CC2943 loci in swarmer cells ([3]; 10 μg/ml added to synchronized swarmer cells, 30-180 min): only one focus for each locus; Separation of origin-distal loci (CC2943, CC3300, CC3656, CC0091) ([3]; A22 added after origin segregation (30 min), listed as A22): proceeded to replicate and separate their CC2943 locus into two foci; also recorded: duplicated and separated in the presence of A22
